Assays:
[1] = tested on: oocytes in gonad of a 12.5 day-old fetus after fertilization; assay: In vitro culture of gonad in presence of PI3K inhibitor; oocyte size counted by Stella-CFP fluorescence; format: cell-based, mouse; details: 25 μM Ly from 6th to 16th day of culture; observed on 16th day; FIG. 6B
Description: First, a Transwell-COL membrane (3.0 μm pore size, 24 mm diameter) (manufactured by Corning Inc.) was set in each well of a 6-well plate, and the gonad collected in (1) were placed on a membrane. Then, 1.3 mL of medium was added to each well and culture was performed for 16 days. Also, the medium was cultured in αM2 for 4 days and then cultured in S10. In addition, the PI3K inhibitor LY294002 (hereinafter, may be abbreviated as “Ly”) (manufactured by Cell Signaling Technology, model number: 9901) was added to the medium such that a final concentration is 25 μM, during the period from the 6th day to the 16th day from the start of the culture. In addition, ICI 182,780 (7α,17β-[9-[(4,4,5,5,5-pentafluoropentyl)sulfinyl]nonyl]estra-1,3,5(10)-triene-3,17-diol) (manufactured by Tocris Bioscience) which is an estrogen receptor antagonist was added during the period from 5th to 9th day after the start of culture such that a final concentration in the medium is 500 nM. About half of the medium was replaced with a new medium every other day. In addition, as a control, those cultured in the same manner without adding Ly (cultured under a steady condition) were also prepared. The gonad on the 16th day from the start of culture were observed under a fluorescent stereomicroscope (manufactured by Olympus Corporation, model number: SZX16). In FIG. 6A, “Control” is a gonad cultured under a steady condition (in the absence of Ly), and “Ly” is a gonad cultured in the presence of the PI3K inhibitor LY294002. A scale bar represents 50 μm. Further, FIG. 6B is a graph in which the number of oocytes was counted using the expression of Stella-CFP as an index in FIG. 6A, and proportions of the oocytes smaller than 20 μm, 20 μm or larger and 50 μm or smaller, and larger than 50 μm were calculated.

[2] = tested on: transcription factor Foxo3a localization in oocytes; assay: In vitro culture of gonad in presence of PI3K inhibitor with or without pressurization; Foxo3a immunostaining; format: cell-based, mouse; details: 25 μM Ly, oocytes of 20 μm or smaller, 16th day; for proportion of oocytes in which Foxo3a was localized in the nucleus: FIG. 8A; for proportion of oocytes in which Foxo3a was localized in the cytosol: FIG. 8B
Description: Specifically, first, a Transwell-COL membrane (3.0 μm pore size, 24 mm diameter) (manufactured by Corning Inc.) was set in each well of a 6-well plate, and the gonad collected in (1) were placed on a membrane. Then, 1.3 mL of medium was added to each well and culture was performed for 16 days. For artificial pressurization, AGP-3001S (registered trademark) manufactured by STREX was used to apply a hydrostatic pressure of 33.33 kPa, during the period from the 6th day to the 16th day from the start of the culture. In addition, Ly was added to the medium such that a final concentration is 25 μM, during the period from the 6th day to the 16th day from the start of the culture. Also, the medium was cultured in αM2 for 4 days and then cultured in S10. In addition, ICI 182,780 (7α,17β-[9-[(4,4,5,5,5-pentafluoropentyl)sulfinyl]nonyl]estra-1,3,5(10)-triene-3,17-diol) (manufactured by Tocris Bioscience) which is an estrogen receptor antagonist was added during the period from 5th to 9th day after the start of culture such that a final concentration in the medium is 500 nM. About half of the medium was replaced with anew medium every other day. As a control, those cultured in the same manner in the presence of Ly without pressurization were also prepared. In the gonad cultured in (2), a tissue section of the gonad was prepared by using the same method as in (1) of Reference Example 1. Then, the tissue section of the gonad obtained in (3) was immunohistochemically stained using the same method as in (4) of Example 1. […] In FIG. 7, “No Press (0 kPa)” is a gonad cultured in the presence of Ly without pressurization. “Press (33.3 kPa)” is a gonad cultured under the artificially pressurized condition and in the presence of Ly. a and e are staining images for CFP expressed under the control of the expression of the germ cell marker Stella. b and f are immunostaining images using an antibody against a transcription factor Foxo3α. c and g are immunostaining images using an antibody against the MVH of the germ cell marker. d is an image in which a nuclear-staining image using DAPI is superimposed on the staining images in a to c. h is an image in which a nuclear-staining image using DAPI is superimposed on the staining images in e to g. A scale bar represents 10 μm. Further, FIG. 8A is a graph obtained by calculating a proportion of oocytes in which the transcription factor Foxo3a is localized in the nucleus, from the immunostaining image using the antibody against the transcription factor Foxo3a in FIG. 7. FIG. 8B is a graph obtained by calculating a proportion of oocytes in which the transcription factor Foxo3a is localized in a cytosol, from the immunostaining image using the antibody against the transcription factor Foxo3a in FIG. 7.

[3] = artificially pressurized condition (33.33 kPa)

O=c1cc(N2CCOCC2)oc2c(-c3ccccc3)cccc12 [Ly, LY294002]
proportion of oocytes having a size larger than 50 μm [1]: about 23%
proportion of oocytes having a size smaller than 20 μm in total oocytes [1]: about 29%
proportion of oocytes with a size of 20 μm or larger and 50 μm or smaller [1]: about 48%
proportion of oocytes in which Foxo3a was localized in the nucleus [2, 3]: about 82%
proportion of oocytes in which Foxo3a was localized in the cytosol [2, 3]: about 18%
proportion of oocytes in which Foxo3a was localized in the nucleus ([2]; without pressurization (0 kPa)): about 52%
proportion of oocytes in which Foxo3a was localized in the cytosol ([2]; without pressurization (0 kPa)): about 48%

Source: patent US12054747B2, “Method of differentiating primordial germ cell into primordial follicle in vitro” (KYUSHU UNIVERSITY, NATIONAL UNIVERSITY CORPORATION, priority 2018, dated 2024)
